Conditions: Liquid, Closed cell (Static) method

CC(=O)N(C)C [N,N-dimethylethanamide]
Conditions | vapor or sublimation pressure [kPa]
323.15 K | 1.158
333.15 K | 1.982
343.15 K | 3.271
353.15 K | 5.193
363.15 K | 8
373.15 K | 12
383.15 K | 17.55
393.15 K | 25.03
403.15 K | 35.04
413.15 K | 48.09
423.15 K | 64.73
